Test results taken from article PMC6210068 (ACS Omega, 2018).

Columns and labels:
[1] = target: T1, DOR (Homo sapiens, UniProt P41143); test: Radioligand binding at DOR
[2] = target: T2, KOR (Homo sapiens, UniProt P41145); test: biochemical; format: binding; conditions: for Ki: KOR, [3H]U69593, mean ± SEM, N = 2–4
[3] = target: T3, MOR (Homo sapiens, UniProt P35372); test: biochemical; format: binding
[4] = target: hNOP (Homo sapiens, UniProt P41146); test: Radioligand binding at NOP
[5] = target: rat kidney TSPO (Rattus norvegicus, UniProt P16257); test: Radioligand binding at TSPO; conditions: for Ki: TSPO, rat TSPO, [3H]PK11195
Sequence of rat kidney TSPO (P16257 whole entry): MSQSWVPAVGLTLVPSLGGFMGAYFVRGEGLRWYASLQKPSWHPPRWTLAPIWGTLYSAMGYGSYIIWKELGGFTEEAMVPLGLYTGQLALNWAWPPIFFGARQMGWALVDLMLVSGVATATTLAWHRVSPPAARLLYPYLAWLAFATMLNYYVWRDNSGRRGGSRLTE

[6] = target: T4, hDAT (Homo sapiens, UniProt Q01959); test: Radioligand binding at DAT; conditions: for DAT, inhibition, % of control at 10 μM: [3H]WIN35428, negative = enhanced radioligand binding
T4 sequence (Q01959 whole entry): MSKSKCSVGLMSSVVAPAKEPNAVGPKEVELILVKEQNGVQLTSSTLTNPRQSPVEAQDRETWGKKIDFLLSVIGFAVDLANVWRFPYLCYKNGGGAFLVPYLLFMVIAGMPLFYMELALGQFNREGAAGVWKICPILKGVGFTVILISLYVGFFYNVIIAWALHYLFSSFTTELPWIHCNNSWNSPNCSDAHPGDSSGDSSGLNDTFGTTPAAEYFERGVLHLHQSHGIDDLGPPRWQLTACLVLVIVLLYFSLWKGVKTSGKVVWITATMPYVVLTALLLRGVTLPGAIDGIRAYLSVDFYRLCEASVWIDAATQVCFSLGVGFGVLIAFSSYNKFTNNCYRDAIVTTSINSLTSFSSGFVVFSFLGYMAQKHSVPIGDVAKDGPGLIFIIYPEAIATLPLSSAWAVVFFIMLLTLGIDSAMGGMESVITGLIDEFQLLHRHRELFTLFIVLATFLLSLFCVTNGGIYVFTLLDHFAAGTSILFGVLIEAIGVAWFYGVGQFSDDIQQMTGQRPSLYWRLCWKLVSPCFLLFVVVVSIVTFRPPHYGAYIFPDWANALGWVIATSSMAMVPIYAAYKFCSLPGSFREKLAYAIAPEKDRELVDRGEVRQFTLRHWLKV

[7] = target: T5, hA3AR (Homo sapiens, UniProt P0DMS8); test: A3AR binding; conditions: for reduction of hA3AR binding affinity by 7-deaza modification: 28 vs 24, 54 vs 49, 55 vs 51
T5 sequence (P0DMS8 1-318): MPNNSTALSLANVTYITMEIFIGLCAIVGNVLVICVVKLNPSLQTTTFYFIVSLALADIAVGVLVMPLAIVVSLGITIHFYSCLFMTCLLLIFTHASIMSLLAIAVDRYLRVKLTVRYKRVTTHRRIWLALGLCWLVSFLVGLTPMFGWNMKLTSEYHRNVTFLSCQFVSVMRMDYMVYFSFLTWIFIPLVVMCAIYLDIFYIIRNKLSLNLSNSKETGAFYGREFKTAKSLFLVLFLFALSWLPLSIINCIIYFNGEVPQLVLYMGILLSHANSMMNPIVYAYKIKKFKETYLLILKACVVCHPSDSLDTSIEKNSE

[8] = target: T6, mA1AR (Mus musculus, UniProt Q60612); test: mA1AR binding; conditions: read-out: mA1AR binding, % inhibition at 10 μM
T6 sequence (Q60612 1-326): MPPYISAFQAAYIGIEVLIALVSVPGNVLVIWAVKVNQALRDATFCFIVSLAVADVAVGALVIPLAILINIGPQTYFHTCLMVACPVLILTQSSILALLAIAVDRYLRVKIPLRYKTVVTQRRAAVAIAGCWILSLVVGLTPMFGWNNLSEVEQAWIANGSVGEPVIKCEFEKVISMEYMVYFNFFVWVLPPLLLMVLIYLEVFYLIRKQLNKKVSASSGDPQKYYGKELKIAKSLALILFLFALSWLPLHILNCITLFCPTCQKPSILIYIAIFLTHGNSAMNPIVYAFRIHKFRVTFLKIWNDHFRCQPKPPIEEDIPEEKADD

[9] = target: mA2AAR (Mus musculus, UniProt Q60613); test: mA2AAR binding; conditions: read-out: mA2AAR binding, % inhibition at 10 μM
[10] = target: T1, DOR; test: β-arrestin-recruitment TANGO assay at DOR; format: cell-based; conditions: 10 μM
[11] = target: T2, KOR; test: β-arrestin-recruitment TANGO assay at KOR; format: cell-based; conditions: 10 μM; vs naloxone 121 = 100% inhibition; agonist 109 (3 nM)
[12] = target: T3, MOR; test: β-arrestin-recruitment TANGO assay at MOR; format: cell-based; conditions: 10 μM
[13] = target: T2, KOR; format: cell-based; conditions: antagonism of 1 μM U69593 98
[14] = target: T5, hA3AR; test: hA3AR-mediated inhibition of cAMP formation; format: cell-based; conditions: read-out: maximal efficacy, hA3AR-mediated inhibition of cAMP formation
[15] = target: T4, hDAT; test: hDAT binding modulation, [3H]mazindol 119
[16] = target: T4, hDAT; test: [3H]dopamine uptake inhibition at hDAT; format: cell-based
[17] = target: T7, hNET (Homo sapiens, UniProt P23975); test: hNET binding, [125I]118
T7 sequence (P23975 whole entry): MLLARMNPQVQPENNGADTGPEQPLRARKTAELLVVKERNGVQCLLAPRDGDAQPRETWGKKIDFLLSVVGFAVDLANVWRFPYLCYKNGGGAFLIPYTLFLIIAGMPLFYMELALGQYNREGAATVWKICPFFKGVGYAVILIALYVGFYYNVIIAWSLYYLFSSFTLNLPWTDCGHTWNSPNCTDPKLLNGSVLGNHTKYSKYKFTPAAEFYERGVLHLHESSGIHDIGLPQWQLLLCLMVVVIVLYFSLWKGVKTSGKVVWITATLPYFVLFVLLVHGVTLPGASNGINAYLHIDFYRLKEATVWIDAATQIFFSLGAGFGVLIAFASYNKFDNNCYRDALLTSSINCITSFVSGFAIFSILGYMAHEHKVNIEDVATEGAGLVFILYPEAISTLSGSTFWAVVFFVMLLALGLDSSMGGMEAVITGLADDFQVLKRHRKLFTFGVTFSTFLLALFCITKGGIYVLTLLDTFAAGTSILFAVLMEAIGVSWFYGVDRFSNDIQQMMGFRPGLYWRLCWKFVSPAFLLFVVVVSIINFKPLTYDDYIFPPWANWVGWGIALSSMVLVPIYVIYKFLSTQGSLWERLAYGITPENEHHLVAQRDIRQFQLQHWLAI

[18] = target: hSERT (Homo sapiens, UniProt P31645); test: hSERT binding and serotonin uptake
[19] = Pharmacokinetics after intravenous and oral administration; format: in vivo, male Sprague Dawley rats
[20] = target: hERG (Homo sapiens, UniProt Q12809); test: hERG inhibition, fluorescence polarization assay; format: binding
Sequence of hERG (Q12809 whole entry): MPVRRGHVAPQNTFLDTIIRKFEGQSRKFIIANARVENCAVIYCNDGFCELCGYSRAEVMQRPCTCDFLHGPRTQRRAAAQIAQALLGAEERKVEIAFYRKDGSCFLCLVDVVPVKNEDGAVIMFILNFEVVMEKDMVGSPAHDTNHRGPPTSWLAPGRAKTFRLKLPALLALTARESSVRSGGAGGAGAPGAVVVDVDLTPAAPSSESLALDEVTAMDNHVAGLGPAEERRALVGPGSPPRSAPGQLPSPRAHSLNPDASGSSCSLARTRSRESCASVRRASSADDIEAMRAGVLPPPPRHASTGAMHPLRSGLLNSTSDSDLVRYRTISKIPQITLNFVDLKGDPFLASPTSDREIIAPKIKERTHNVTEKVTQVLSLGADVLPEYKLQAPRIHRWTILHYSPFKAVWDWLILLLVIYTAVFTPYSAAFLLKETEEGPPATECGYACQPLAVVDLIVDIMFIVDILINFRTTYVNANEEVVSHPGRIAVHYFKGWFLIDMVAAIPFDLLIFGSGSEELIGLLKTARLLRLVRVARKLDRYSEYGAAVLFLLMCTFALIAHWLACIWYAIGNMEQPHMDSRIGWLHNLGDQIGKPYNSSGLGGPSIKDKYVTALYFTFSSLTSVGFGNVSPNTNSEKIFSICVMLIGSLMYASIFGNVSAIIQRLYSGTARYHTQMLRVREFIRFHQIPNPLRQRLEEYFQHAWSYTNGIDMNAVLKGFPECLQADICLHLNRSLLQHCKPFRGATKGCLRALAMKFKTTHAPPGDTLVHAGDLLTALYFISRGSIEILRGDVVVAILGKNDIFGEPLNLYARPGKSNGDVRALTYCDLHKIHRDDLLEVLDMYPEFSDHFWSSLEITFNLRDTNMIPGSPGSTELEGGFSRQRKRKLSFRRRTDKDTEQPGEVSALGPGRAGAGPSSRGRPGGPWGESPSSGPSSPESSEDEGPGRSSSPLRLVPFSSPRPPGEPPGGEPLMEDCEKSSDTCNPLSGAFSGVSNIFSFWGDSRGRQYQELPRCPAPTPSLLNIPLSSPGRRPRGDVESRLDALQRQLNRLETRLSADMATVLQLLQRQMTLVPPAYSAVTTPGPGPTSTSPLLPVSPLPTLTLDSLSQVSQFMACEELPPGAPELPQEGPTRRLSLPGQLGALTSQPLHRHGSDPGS

[21] = target: CYP1A2 (Homo sapiens, UniProt P05177); test: Cytochrome P450 inhibition in human microsomes, 1A2; format: in vitro ADME; conditions: CYP450 1A2 IC50, human microsomes
[22] = target: CYP2C9 (Homo sapiens, UniProt P11712); test: Cytochrome P450 inhibition in human microsomes, 2C9; format: in vitro ADME; conditions: CYP450 2C9 IC50, human microsomes
Sequence of CYP2C9 (P11712 whole entry): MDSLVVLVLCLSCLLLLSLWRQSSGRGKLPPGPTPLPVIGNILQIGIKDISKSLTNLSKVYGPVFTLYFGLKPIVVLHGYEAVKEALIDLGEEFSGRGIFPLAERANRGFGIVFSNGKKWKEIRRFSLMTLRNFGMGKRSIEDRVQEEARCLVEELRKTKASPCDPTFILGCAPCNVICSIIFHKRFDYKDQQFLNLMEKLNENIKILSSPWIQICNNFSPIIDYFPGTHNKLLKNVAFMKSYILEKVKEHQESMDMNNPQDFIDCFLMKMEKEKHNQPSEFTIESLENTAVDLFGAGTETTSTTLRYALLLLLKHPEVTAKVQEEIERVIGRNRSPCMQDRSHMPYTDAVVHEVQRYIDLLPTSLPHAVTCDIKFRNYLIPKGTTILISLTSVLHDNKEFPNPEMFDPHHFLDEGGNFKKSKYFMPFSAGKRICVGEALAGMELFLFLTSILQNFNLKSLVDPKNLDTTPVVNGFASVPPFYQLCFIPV

[23] = target: CYP2C19 (Homo sapiens, UniProt P33261); test: Cytochrome P450 inhibition in human microsomes, 2C19; format: in vitro ADME; conditions: CYP450 2C19 IC50, human microsomes
[24] = target: CYP2D6 (Homo sapiens, UniProt P10635); test: Cytochrome P450 inhibition in human microsomes, 2D6; format: in vitro ADME; conditions: CYP450 2D6 IC50, human microsomes
[25] = target: CYP3A4 (Homo sapiens, UniProt P08684); test: Cytochrome P450 inhibition in human microsomes, 3A4; format: in vitro ADME; conditions: CYP450 3A4 IC50, human microsomes
[26] = Human plasma stability; format: in vitro ADME; conditions: after 2 h
[27] = CACO-2 cell permeability; format: in vitro ADME; conditions: human, Caco-2, pH 7.4
[28] = tested on: CACO-2 cells; test: CACO-2 cell permeability; format: in vitro ADME; conditions: human, Caco-2, 120 min, 10 µM, pH 7.4
[29] = target: 5HT2A serotonin receptor (Homo sapiens, UniProt P28223); test: PDSP off-target binding, 5HT2A
[30] = target: rat brain benzodiazepine receptor; test: PDSP binding, rat brain benzodiazepine receptor; conditions: read-out: rat brain benzodiazepine receptor, Ki
[31] = target: T8, rat σ2 receptor (Rattus norvegicus, UniProt Q5U3Y7); test: PDSP binding, σ2 receptor
T8 sequence (Q5U3Y7 1-176): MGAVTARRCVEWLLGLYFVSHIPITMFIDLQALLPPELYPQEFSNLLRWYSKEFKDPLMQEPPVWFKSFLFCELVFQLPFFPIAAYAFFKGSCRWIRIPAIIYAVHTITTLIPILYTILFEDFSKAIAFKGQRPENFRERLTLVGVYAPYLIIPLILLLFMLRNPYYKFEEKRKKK

[32] = target: T9, hA1AR (Homo sapiens, UniProt P30542); test: hA1AR binding
T9 sequence (P30542 1-326): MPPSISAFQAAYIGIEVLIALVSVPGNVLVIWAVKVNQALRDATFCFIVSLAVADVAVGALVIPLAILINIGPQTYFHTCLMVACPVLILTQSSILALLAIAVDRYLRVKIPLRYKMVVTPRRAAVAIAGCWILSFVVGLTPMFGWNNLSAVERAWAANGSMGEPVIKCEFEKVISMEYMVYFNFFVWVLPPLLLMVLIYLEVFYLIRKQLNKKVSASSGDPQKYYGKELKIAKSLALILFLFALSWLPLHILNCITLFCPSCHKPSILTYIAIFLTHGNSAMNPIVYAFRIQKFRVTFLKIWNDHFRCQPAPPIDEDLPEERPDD

[33] = target: 5HT2B serotonin receptor (Homo sapiens, UniProt P41595); test: PDSP off-target binding, 5HT2B
[34] = target: muscarinic M1 receptor (Homo sapiens, UniProt P11229); test: PDSP off-target binding, muscarinic M1
[35] = target: T7, hNET; conditions: read-out: Ki, inhibition of binding of [3H]104 at NET; cited from earlier work
[36] = target: β3 adrenergic receptor (Homo sapiens, UniProt P13945); test: PDSP off-target binding, β3 adrenergic
[37] = target: human 5HT1A serotonin receptor (Homo sapiens, UniProt P08908); test: PDSP off-target binding, 5HT1A
Sequence of human 5HT1A serotonin receptor (P08908 whole entry): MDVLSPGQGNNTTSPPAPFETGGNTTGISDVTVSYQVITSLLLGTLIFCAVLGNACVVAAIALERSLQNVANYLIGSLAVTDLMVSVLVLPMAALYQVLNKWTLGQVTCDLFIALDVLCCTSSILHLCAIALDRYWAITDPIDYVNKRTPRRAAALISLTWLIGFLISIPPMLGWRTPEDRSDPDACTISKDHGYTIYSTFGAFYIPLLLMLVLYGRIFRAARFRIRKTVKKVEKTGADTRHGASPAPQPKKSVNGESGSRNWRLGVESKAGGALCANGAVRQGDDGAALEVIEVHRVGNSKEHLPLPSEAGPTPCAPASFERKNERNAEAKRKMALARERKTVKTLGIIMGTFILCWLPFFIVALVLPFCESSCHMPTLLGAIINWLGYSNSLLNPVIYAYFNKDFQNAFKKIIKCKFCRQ

[38] = target: T4, hDAT; conditions: read-out: Ki, inhibition of binding of [3H]103 at hDAT; cited from earlier work
[39] = male, Sprague-Dawley, rat, plasma, po

T1 sequence (P41143 whole entry): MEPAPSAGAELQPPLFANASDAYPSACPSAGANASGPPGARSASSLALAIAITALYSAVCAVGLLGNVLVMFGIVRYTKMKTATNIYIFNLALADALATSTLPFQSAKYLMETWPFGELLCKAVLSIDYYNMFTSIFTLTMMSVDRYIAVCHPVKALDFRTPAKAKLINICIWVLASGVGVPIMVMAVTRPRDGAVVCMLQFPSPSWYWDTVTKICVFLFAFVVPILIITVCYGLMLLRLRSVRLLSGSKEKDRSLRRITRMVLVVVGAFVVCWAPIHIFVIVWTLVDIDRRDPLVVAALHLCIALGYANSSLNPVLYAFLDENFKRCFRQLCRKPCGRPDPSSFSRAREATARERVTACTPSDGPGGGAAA
T2 sequence (P41145 whole entry): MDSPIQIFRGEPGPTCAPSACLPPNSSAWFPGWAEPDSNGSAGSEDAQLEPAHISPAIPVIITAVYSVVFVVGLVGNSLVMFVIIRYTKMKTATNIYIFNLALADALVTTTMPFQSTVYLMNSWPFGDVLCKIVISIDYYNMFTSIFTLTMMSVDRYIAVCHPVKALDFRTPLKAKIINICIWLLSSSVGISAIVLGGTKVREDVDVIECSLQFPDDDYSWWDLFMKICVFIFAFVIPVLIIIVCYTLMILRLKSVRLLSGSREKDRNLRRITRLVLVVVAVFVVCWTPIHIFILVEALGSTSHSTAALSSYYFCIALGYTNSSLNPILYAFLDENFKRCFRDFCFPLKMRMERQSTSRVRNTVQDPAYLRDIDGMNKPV
T3 sequence (P35372 whole entry): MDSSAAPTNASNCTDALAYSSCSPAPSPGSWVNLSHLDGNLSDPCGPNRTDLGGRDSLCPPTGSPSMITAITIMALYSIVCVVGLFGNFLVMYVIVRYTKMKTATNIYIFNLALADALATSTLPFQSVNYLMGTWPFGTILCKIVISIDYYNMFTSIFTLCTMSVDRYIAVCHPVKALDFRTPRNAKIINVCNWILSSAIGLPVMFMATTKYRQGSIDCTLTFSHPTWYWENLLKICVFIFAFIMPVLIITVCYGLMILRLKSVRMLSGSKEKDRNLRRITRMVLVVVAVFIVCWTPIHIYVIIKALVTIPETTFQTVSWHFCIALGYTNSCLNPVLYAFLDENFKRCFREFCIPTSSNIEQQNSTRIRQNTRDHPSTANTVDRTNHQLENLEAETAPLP
Sequence of hNOP (P41146 whole entry): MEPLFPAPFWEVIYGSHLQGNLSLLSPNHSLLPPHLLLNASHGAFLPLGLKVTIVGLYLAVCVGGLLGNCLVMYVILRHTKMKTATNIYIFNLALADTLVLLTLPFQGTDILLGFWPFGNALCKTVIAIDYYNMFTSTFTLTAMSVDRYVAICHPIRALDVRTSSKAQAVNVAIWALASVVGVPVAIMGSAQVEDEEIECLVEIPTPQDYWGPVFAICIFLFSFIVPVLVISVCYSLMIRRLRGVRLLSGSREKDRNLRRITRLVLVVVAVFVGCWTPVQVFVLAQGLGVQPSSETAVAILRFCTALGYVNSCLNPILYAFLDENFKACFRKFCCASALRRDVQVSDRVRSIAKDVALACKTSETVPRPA

CCOC(=O)[C@@]12C[C@@H]1[C@@H](n1ccc3c(NC)nc(C#Cc4ccc(Cl)s4)nc31)[C@H](O)[C@@H]2O [compound 28, Ethyl(1S,2R,3S,4R,5S)-4-(2-((5-chlorothiophen-2-yl)ethynyl)-4-(methylamino)-7H-pyrrolo[2,3-d]pyrimidin-7-yl)-2,3-dihydroxybicyclo[3.1.0]hexane-1-carboxylate]
Ki [1]: 0.786 ± 0.21 µM
ligand efficiency ([2]; KOR binding): 0.25
Ki [2]: 0.042 ± 0.001 µM
preference for KOR in comparison to DOR ([2]; ratio of Ki): 19 fold
preference for KOR in comparison to MOR ([2]; ratio of Ki): 15 fold
preference for KOR in comparison to TSPO ([2]; ratio of Ki): ~20 fold
Ki [3]: 0.637 ± 0.367 µM
Ki [4]: 3.71 ± 0.78 µM
Ki [5]: 0.869 ± 0.16 µM
EC50 [6]: > 1 µM
DAT, inhibition, % of control at 10 μM [6]: –172 ± 57 (3) %
Ki [7]: 0.448 ± 0.013 µM
reduction of hA3AR binding affinity by 7-deaza modification [7]: 31 fold
inhibition at 10 µM [8]: 32%
inhibition at 10 µM [9]: 10%
DOR Antag (%) ([10]; vs naloxone 121 = 100% inhibition): 85.4%
DOR Ag (%) ([10]; vs standard agonist = 100%): –0.6%
KOR Antag (%) [11]: 99.6%
MOR Antag (%) ([12]; vs naloxone 121 = 100% inhibition, agonist 99 (300 nM)): 96.4%
MOR Ag (%) ([12]; vs standard agonist = 100%): 0.4%
βarrestin2 recruitment, Imax (% 120) [13]: 92 ± 1 % 120
Emax at 10 µM [14]: 0.59 ± 6.62%
EC50 [15]: 2.16 ± 0.55 µM
hDAT [3H]119 binding, % control binding (maximal) [15]: 267 ± 17%
IC50 [16]: > 9.8 µM
EC50 [17]: > 10 µM
hSERT binding enhancement / serotonin uptake inhibition potency [18]: > 10 µM
MRT [19, 39]: 2.3 to 2.8 h
half-life [19, 39]: 1.6 to 2.2 h
oral bioavailability F ([19]; p.o. 1 mg/kg, 1 mg/kg): 58%
oral bioavailability F ([19]; p.o. 10 mg/kg, 10 mg/kg): 60%
IC50 [20]: > 30 µM
IC50 [21]: ≥ 10 µM
IC50 [22]: ≥ 10 µM
IC50 [23]: ≥ 10 µM
IC50 [24]: ≥ 10 µM
IC50 [25]: ≥ 10 µM
stability in human plasma, remaining [26]: 98%
Papp A→B at 120 min, 10 µM [27]: 1.42 ×10⁻⁶ cm/s
Efflux Ratio [28]: 15.6

O[C@@H]1[C@H](O)[C@@H]2C[C@@H]2[C@H]1n1ccc2c(NC(C3CC3)C3CC3)nc(C#Cc3ccc(Br)s3)nc21 [compound 57, (1R,2R,3S,4R,5S)-4-(2-((5-Bromothiophen-2-yl)ethynyl)-4-((dicyclopropylmethyl)amino)-7H-pyrrolo[2,3-d]pyrimidin-7-yl)bicyclo[3.1.0]hexane-2,3-diol]
Ki [1]: > 10 µM
Ki [2]: 3.02 ± 0.09 µM
Ki [3]: > 10 µM
Ki [7]: 2.44 ± 0.43 µM
Ki [29]: 4.34 ± 1.74 µM
Ki [30]: 0.118 µM
Ki [31]: 6.92 µM

O[C@@H]1[C@H](O)[C@@H]2C[C@@H]2[C@H]1n1ccc2c(NCCc3ccccc3)nc(C#Cc3ccccc3)nc21 [compound 55, (1R,2R,3S,4R,5S)-4-(4-(Phenethylamino)-2-(phenylethynyl)-7H-pyrrolo[2,3-d]pyrimidin-7-yl)bicyclo[3.1.0]hexane-2,3-diol]
Ki [1]: 3.66 ± 1.33 µM
Ki [2]: 1.37 ± 0.18 µM
Ki [3]: 4.02 ± 0.89 µM
Ki [5]: 2.12 ± 0.23 µM
Ki [7]: 0.217 ± 0.065 µM
reduction of hA3AR binding affinity by 7-deaza modification [7]: 11 fold
Ki [32]: 1.3 µM
Ki [33]: 3.06 ± 0.17 µM
Ki [34]: 6.97 µM

CCNc1nc(C#Cc2ccccc2)nc2c1ncn2[C@H]1[C@H](O)[C@H](O)[C@@H]2C[C@@H]21 [compound 50]
DOR, inhibition of radioligand binding at 10 μM (class) ([1]; Table 4): ^g (<30% inhibition of radioligand binding at 10 μM)
TSPO, inhibition of radioligand binding at 10 μM (class) ([5]; Table 4): ^f (30–50% inhibition of radioligand binding at 10 μM)
DAT, inhibition, % of control at 10 μM [6]: –154%
Ki [35]: 8.66 µM

CNC(=O)[C@@]12C[C@@H]1[C@@H](n1cnc3c(NC4CC4c4ccccc4)nc(C#Cc4ccccc4)nc31)[C@H](O)[C@@H]2O (mixture of isomers) [compound 10]
DOR, inhibition of radioligand binding at 10 μM (class) ([1]; Table 1): ^e (30–50% inhibition of radioligand binding at 10 μM)
TSPO, inhibition of radioligand binding at 10 μM (class) ([5]; Table 1): ^f (<30% inhibition of radioligand binding at 10 μM)
Ki [36]: 2.5 µM
Ki [37]: 6.3 µM
Ki [31]: 2.51 µM
Ki [38]: 2.31 µM
